ChEMBL document CHEMBL1136674, “Antimycobacterial pimarane diterpenes from the Fungus Diaporthe sp” (Bioorg Med Chem Lett, 2003)
Values after ≈ are worked out from the molar mass of the structure shown.

How the values were obtained:
[1] = system: Mycobacterium tuberculosis; assay: Antitubercular activity against Mycobacterium tuberculosis; format: functional
Vero = assay: Cytotoxicity against vero cell line; format: functional, cell-based; details: Chlorocebus sabaeus
BC1 cell line = assay: Cytotoxicity against BC-1 cell line; format: functional, cell-based; details: Homo sapiens
KB = assay: Cytotoxicity against KB cell line; format: functional, cell-based; details: Homo sapiens

SMILES	MIC [1] [µg/mL]	IC50 (Vero) [µg/mL]	IC50 (BC1 cell line) [µg/mL]	IC50 (KB) [µg/mL]
C=C[C@]1(C)C=C2C(O)[C@]3(O)OC[C@@]4(CCCC(C)(C)[C@@]43O)[C@@]2(O)[C@H](O)C1 (stereo partly drawn) [DIAPORTHEIN A]	200 (≈ 546 µM)	> 50	–	–
C=C[C@]1(C)C=C2C(=O)[C@]3(O)OC[C@@]4(CCCC(C)(C)[C@@]43O)[C@@]2(O)[C@H](O)C1 [DIAPORTHEIN B]	3.1 (≈ 8.51 µM)	1.5 (≈ 4.12 µM)	–	–
Cc1c2ccncc2c(C)c2c1[nH]c1ccccc12 [ELLIPTECINE]	–	–	0.3 (≈ 1.22 µM)	0.3 (≈ 1.22 µM)
NNC(=O)c1ccncc1 [ISONIAZID]	0.09 (≈ 0.656 µM)	–	–	–
NC[C@H]1O[C@H](O[C@H]2[C@H](O)[C@@H](O[C@H]3O[C@H](CO)[C@@H](O)[C@H](N)[C@H]3O)[C@H](N)C[C@@H]2N)[C@H](O)[C@@H](O)[C@@H]1O.O=S(=O)(O)O [KANAMYCIN SULFATE]	5	–	–	–
